In patent US20250134889A1, “TARGETING IRE1 KINASE AND FMRP FOR PROPHYLAXIS, MANAGEMENT AND TREATMENT OF ATHEROSCLEROSIS” (CEDARS-SINAI MEDICAL CENTER, priority 2022, published 2025):

Assays:
[1] = tested on: peritoneal macrophages; assay: In vivo foam cell formation assay; set-up: species or system mouse; settings: Apoe-/- mice, WD 12 weeks, 30 mg/kg/day in the last 4 weeks, ORO staining
Description: FIGS. 2A-2M depict that FMRP deficiency enhances RCT while reducing foam cell formation in vivo. (Data are mean±SEM. Unpaired t-test with Welch's correction. * P≤0.05, ** P≤0.01, *** P≤0.001.) • 2A. Fmr1^+/+ and Fmr1^−/− mice were injected with AAV_PCSK9 and fed with 16 weeks of WD. Residential PM were stained with Oil Red O (ORO) and imaged (n=7; Scale bar=50 μm). • 2B. Apoe-/mice were fed with WD (12 weeks) and injected with vehicle (DMSO) or AMG-18 (30 mg/kg/day) in the last 4 weeks of WD. Residential PM were stained with ORO and imaged (n=5; Scale bar=50 μm). • 2C-2E. […] Macrophages were pre-loaded with fluorescently labeled cholesterol (16 hours) followed by incubation in efflux medium including APOA1 (25 μg/ml) or HDL (50 μg/ml) as acceptors for 6 hours. % Efflux was calculated as cholesterol signal in medium/cholesterol signal in medium and cell: Cholesterol efflux in (2F) Fmr1+/+ and Fmr1^−/− BMDM (n=4) and in (2G) BMDM that were pre-treated either with DMSO or AMG-18 (5 μM; 1 hour) (n=4). • 2H-2K. […] Protein lysates from macrophages used in FIG. 2C were analyzed by western blotting using specific antibodies for FMRP and β-Actin. • 2M. […]

[2] = tested on: BMDMs; assay: Apoptosis detection by flow cytometry (PI); format: cell-based, mouse; settings: AMG-18 10 μM 1 hour pre-treatment, PA 12 hours
Description: FIGS. 5K-5T depict: (Data are mean #SEM; Mann Whitney U test. * P≤0.05, ** P≤0.01, *** P≤0.001) • 5K. The ratio of mouse weight at the beginning of the experiment over the weight at the end of the experiment in FIG. 5A (n=12-13); and plasma measurements for glucose (n=12-13), cholesterol (n=12-13) and lipoproteins (n=4), respectively, from mice in FIG. 5A. • 5L. Abundance of B cells, T cells and monocytes in the peripheral blood as % of total CD45+ cells from the Fmr1^+/+ and Fmr1^−/− mice in FIG. 5A (n=12-13) . • 5M. Macrophage area was calculated from MOMA-2 (red)-stained aortic root sections as % of MOMA2^+ stained area to total plaque area (n=8; Scale bar=100 μm). • 5N. Apoptosis was calculated from the number of TUNEL^+ cells (green) in the MOMA-2-stained (red) plaque area (n=8; Scale bar=100 μm). • 5O. Fmr1^+/+ and Fmr1^−/− BMDMs or AMG-18 pre-treated cells (10 μM, 1 hour) were treated with PA ([…]) treatment for 12 hours and then stained with Propidium iodide (PI) (n=5). • 5P. % Smooth muscle actin (α-SMA) was calculated from aortic root sections stained with a-SMA (green) as % α-SMA^+ area to the total plaque area (n=8, Scale bar 100 μm). • 5Q. % collagen area was calculated from Masson's Trichrome staining as the percentage of collagen (blue) area in total plaque area (n=8; Scale bar=100 μm). • 5R. […]

In the case of `Cc1ccc2c(NS(=O)(=O)c3ccccc3Cl)cccc2c1Oc1ncccc1-c1ccnc(N[C@H]2CCCNC2)n1` [AMG-18], the “foam cell formation in the peritoneum” value [1] is reported as “reduced” and the “apoptosis (PI staining)” value [2] is reported as “no significant change”.
